Results published in ChEMBL document CHEMBL5034037, “Synthesis, Characterization, and Preclinical Evaluation of a Small-Molecule Prostate-Specific Membrane Antigen-Targeted Monomethyl Auristatin E Conjugate” (J Med Chem, 2021).
*1 amine or outer side, *2 acyl side, *3 side chain or, on linkers, in order; H or OH if unused. Where a SMILES comes first, the peptide text is derived from it. [ ]: non-standard residue; d: D form. The star is where a group is joined. GluureaLys(ε-3-ClBenzyl) = O=C(O)CC[C@H](NC(=O)N[C@@H](CCCCN(Cc1cccc(Cl)c1)*)C(=O)O)C(=O)O; Dolaproine = CO[C@@H]([C@@H]1CCCN1)[C@@H](C)C(=O)O; Dil = CC[C@H](C)[C@H](NC)[C@@H](CC(=O)O)OC; X1 = O=C(CCCc1cn(CCCN[*:1])nn1)[*:2]; PABC = O=C(OCc1ccc(N[*:1])cc1)[*:2]; X2 = C[C@@H](N*)[C@@H](O)c1ccccc1; Cit = NC(=O)NCCC[C@H](N)C(=O)O; Suc = O=C(CCC(=O)[*:2])[*:1]; NMeV = CN[C@H](C(=O)O)C(C)C; Ahx = NCCCCCC(=O)O

Tests used:
[1] = test system: Salmonella typhimurium; experiment: Mutagenecity in Salmonella typhimurium TA98 in presence of metabolic activation system at 100 ug/ml by Ames test; assay type: toxicity, organism-based; settings: salmonella enterica subsp. enterica serovar typhimurium; dose 100 µg/ml
[2] = Toxicity in rat assessed as morphological changes in mucosae of mouth at 150 to 225 microg/kg, iv; assay type: tissue-based; settings: in vivo, dose 150-225 µg/kg
[3] = test system: Salmonella typhimurium; experiment: Mutagenecity in Salmonella typhimurium TA98 without metabolic activation system at 1000 ug/ml by Ames test; assay type: toxicity, organism-based; settings: salmonella enterica subsp. enterica serovar typhimurium; dose 1000 µg/ml
[4] = Toxicity in rabbit assessed as thrombosis at 81 to 122 microg/kg, iv; set-up: species or system Oryctolagus cuniculus; settings: in vivo, dose 81-122 µg/kg

## CC[C@H](C)[C@@H]([C@@H](CC(=O)N1CCC[C@H]1[C@H](OC)[C@@H](C)C(=O)N[C@H](C)[C@@H](O)c1ccccc1)OC)N(C)C(=O)[C@@H](NC(=O)[C@H](C(C)C)N(C)C(=O)OCc1ccc(NC(=O)[C@H](CCCNC(N)=O)NC(=O)[C@@H](NC(=O)CCCc2cn(CCCNC(=O)[C@H](Cc3ccc(O)cc3)NC(=O)[C@H](Cc3ccccc3)NC(=O)CCC(=O)NCCCCCC(=O)N(CCCC[C@H](NC(=O)N[C@@H](CCC(=O)O)C(=O)O)C(=O)O)Cc3cccc(Cl)c3)nn2)C(C)C)cc1)C(C)C ({GluureaLys(ε-3-ClBenzyl)-Ahx-Suc}-FY[X1]V[Cit][PABC][NMeV]V[Dil][Dolaproine]-X2)
[1]
  Activity: Non-Toxic
[2]
  Activity: Non-Toxic
[3]
  Activity: Non-Toxic
[4]
  Activity: Toxic
